Measurements taken from patent US20080103141A1, “New compounds” (Biovitrum, priority 2006, published 2008).

biological target: T1, human GPR119 receptor (Homo sapiens, UniProt Q8TDV5); assay: Human GPR119 activity assay (cAMP HTRF in HEK293-hGPR119 cells); format: cell-based; conditions: stimulation of cAMP in HEK293 cells stably expressing human GPR119, 20 min at room temperature, read-out: Agonist potency at the human GPR119, EC50
T1 construct: expressed in transfected cells
T1 sequence (Q8TDV5 1-335): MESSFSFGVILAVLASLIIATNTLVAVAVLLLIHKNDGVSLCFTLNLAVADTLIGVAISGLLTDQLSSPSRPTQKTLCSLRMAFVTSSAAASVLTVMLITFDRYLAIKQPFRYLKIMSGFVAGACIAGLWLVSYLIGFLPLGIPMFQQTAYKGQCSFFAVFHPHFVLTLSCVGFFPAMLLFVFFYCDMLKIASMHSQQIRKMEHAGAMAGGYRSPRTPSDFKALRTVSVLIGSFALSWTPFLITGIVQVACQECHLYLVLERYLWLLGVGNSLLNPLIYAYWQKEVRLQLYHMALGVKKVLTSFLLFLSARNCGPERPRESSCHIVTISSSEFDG
Procedure: Human GPR119 Activity Assay
Agonists to the human GPR119 receptor were characterized by measuring human GPR119 receptor-mediated stimulation of cyclic AMP (cAMP) in HEK 293 cells expressing the human GPR119 receptor.
Briefly, cAMP content was determined using a cAMP kit based on HTRF technology (Homogeneous Time-Resolved Fluorescence, Cisbio Cat. no. 62AM2PEC). HEK293 cells stably expressing the human GPR119 receptor (HEK293-hGPR119 cells) were cultured in DMEM (Gibco # 31966-021) supplemented with 10% Bovine Calf Serum (Hyclone # SH30072.03), and, 500 μg/mL Hygromycin B (Roche Diagnostics 843555). At 80% confluency, cells were detached using Trypsine and aliquoted at a density of 5×10^6 cells/mL in freezing medium (DMEM (Gibco # 31966-021), 20% BCS (Hyclone # SH30072.03), 10% DMSO (Sigma #D2650) and stored at −135° C. On the experimental day, HEK293-hGPR119 cells were thawn and diluted to 0.4×10^6 cells/mL in assay buffer (1×HBSS (Gibco Cat. no. 14025-049), 20 mM Hepes (Gibco Cat. no. 15630-056), 0.1% BSA, pH 7.4) and incubated with test substances for 20 min at room temperature. After addition of HTRF reagents diluted in lysis buffer, the 96- or 384-well plates were incubated 1 hour, followed by measuring the fluorescence ratio at 665 nm/620 nm. Test substances was diluted in compound buffer (1×HBSS (Gibco Cat. no. 14025-049), 20 mM Hepes (Gibco Cat. no. 15630-056), 0.1% BSA, 2 mM IBMX (Sigma-Aldrich Cat. No. 17018, pH 7.4). The potency of the agonist was quantified by determine the concentration that cause 50% activation of hGPR119 evoked increase in cAMP, EC50.

| EC50 | Compound |
| --- | --- |
| 14 nM | CC(C)(C)OC(=O)N1CCC(COc2ncc(-c3ccc(S(C)(=O)=O)cc3)cn2)CC1 [EXAMPLE A2, tert-Butyl 4-[({5-[4-(methylsulfonyl)phenyl]pyrimidin-2-yl}oxy)methyl]piperidine-1-carboxylate] |
| 453 nM | CC(C)(C)OC(=O)N1CCC(NCc2cnc(-c3ccc(S(C)(=O)=O)cc3)nc2)CC1 [EXAMPLE B1, tert-Butyl 4-[({2-[4-(methylsulfonyl)phenyl]pyrimidin-5-yl}methyl)amino]piperidine-1-carboxylate] |

| Compound | EC50 |
| --- | --- |
| CC(C)(C)OC(=O)N1CCC(CNc2ncc(-c3ccc(S(C)(=O)=O)cc3)cn2)CC1 [EXAMPLE A22, tert-Butyl 4-[({5-[4-(methylsulfonyl)phenyl]pyrimidin-2-yl}amino)methyl]piperidine-1-carboxylate] | 55 nM |
